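Step 1: Grow cells in 96-well plates. Step 2: Expose to compound for 48 hours at 5 concentrations. Step 3: Interpolate endpoints linearly; if unreached, use highest concentration. Here, GI50 denotes the concentration required for 50% inhibition of growth.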 Active and inactive are the calls of the source. Rule as the data show it: active = GI50 up to about 1.1 µM and inactive = higher.
Tests used:
Assay in all cases: inhibition of tumour cell growth, NCI panel, 48 h
HCC 2998 = test system: HCC 2998
NCI-H522 = test system: NCI-H522
SF-295 = test system: SF-295
K562 = test system: K562
SK-MEL-2 = test system: SK-MEL-2
HL-60 = test system: HL-60
SK-MEL-5 = test system: SK-MEL-5
NCI-H23 = test system: NCI-H23
SW-620 = test system: SW-620
HT-29 = test system: HT-29
IGROV-1 = test system: IGROV-1
ACHN = test system: ACHN
OVCAR-3 = test system: OVCAR-3
SF-268 = test system: SF-268
NCI-H460 = test system: NCI-H460
HOP-62 = test system: HOP-62
UO-31 = test system: UO-31

Compound	GI50 (HCC 2998)	GI50 (NCI-H522)	GI50 (SF-295)	GI50 (K562)	GI50 (SK-MEL-2)	GI50 (HL-60)	GI50 (SK-MEL-5)	GI50 (NCI-H23)	GI50 (SW-620)	GI50 (HT-29)	GI50 (IGROV-1)	GI50 (ACHN)	GI50 (OVCAR-3)	GI50 (SF-268)	GI50 (NCI-H460)	GI50 (HOP-62)	GI50 (UO-31)
CCOC(=O)c1nc2ccc([N+](=O)[O-])cc2c2c1CCO2	> 100 µM (inactive)	92.3 µM (inactive)	> 100 µM (inactive)	> 100 µM (inactive)	> 100 µM (inactive)	> 100 µM (inactive)	> 100 µM (inactive)	> 100 µM (inactive)	> 100 µM (inactive)	> 100 µM (inactive)	> 100 µM (inactive)	> 100 µM (inactive)	> 100 µM (inactive)	> 100 µM (inactive)	> 100 µM (inactive)	> 100 µM (inactive)	–
O=C(Nc1cc(Cl)ccc1Cl)C(=O)C(c1cnc2ccccc2n1)[N+](=O)[O-] (stereo not drawn)	> 100 µM (inactive)	85.1 µM (inactive)	> 100 µM (inactive)	> 100 µM (inactive)	–	> 100 µM (inactive)	> 100 µM (inactive)	> 100 µM (inactive)	> 100 µM (inactive)	> 100 µM (inactive)	> 100 µM (inactive)	> 100 µM (inactive)	> 100 µM (inactive)	> 100 µM (inactive)	> 100 µM (inactive)	> 100 µM (inactive)	> 100 µM (inactive)
CC1=CC(=O)N2[C@H](OC[C@@H]2C(C)C)O1	–	> 100 µM (inactive)	> 100 µM (inactive)	> 100 µM (inactive)	> 100 µM (inactive)	> 100 µM (inactive)	> 100 µM (inactive)	> 100 µM (inactive)	> 100 µM (inactive)	> 100 µM (inactive)	> 100 µM (inactive)	> 100 µM (inactive)	> 100 µM (inactive)	> 100 µM (inactive)	> 100 µM (inactive)	> 100 µM (inactive)	> 100 µM (inactive)
Cc1ccc(N2C(=O)/C(=C/c3ccc(N(CCC#N)CCC#N)cc3)N=C2COc2ccc(Cl)cc2Cl)cc1	–	> 100 µM (inactive)	> 100 µM (inactive)	> 100 µM (inactive)	> 100 µM (inactive)	> 100 µM (inactive)	> 100 µM (inactive)	> 100 µM (inactive)	> 100 µM (inactive)	> 100 µM (inactive)	> 100 µM (inactive)	> 100 µM (inactive)	> 100 µM (inactive)	> 100 µM (inactive)	> 100 µM (inactive)	> 100 µM (inactive)	> 100 µM (inactive)
O=C1CCC(=O)C(C(=O)CCC(=O)Nc2ccc(Cl)cc2)C1 (stereo not drawn)	> 100 µM (inactive)	> 100 µM (inactive)	> 100 µM (inactive)	> 100 µM (inactive)	> 100 µM (inactive)	> 100 µM (inactive)	> 100 µM (inactive)	> 100 µM (inactive)	> 100 µM (inactive)	> 100 µM (inactive)	> 100 µM (inactive)	> 100 µM (inactive)	> 100 µM (inactive)	> 100 µM (inactive)	> 100 µM (inactive)	–	> 100 µM (inactive)
CCOC(=O)c1c(C)c2c(n1C)CCc1c[nH]nc1-2	> 100 µM (inactive)	> 100 µM (inactive)	> 100 µM (inactive)	> 100 µM (inactive)	> 100 µM (inactive)	> 100 µM (inactive)	> 100 µM (inactive)	> 100 µM (inactive)	> 100 µM (inactive)	> 100 µM (inactive)	> 100 µM (inactive)	–	> 100 µM (inactive)	> 100 µM (inactive)	> 100 µM (inactive)	> 100 µM (inactive)	> 100 µM (inactive)
CCOC(=O)c1cnc2sc3ccc4ccccc4c3n2c1=O	> 100 µM (inactive)	–	58.9 µM (inactive)	37.6 µM (inactive)	41.5 µM (inactive)	21.2 µM (inactive)	32.1 µM (inactive)	62.5 µM (inactive)	> 100 µM (inactive)	87.5 µM (inactive)	42.5 µM (inactive)	33.1 µM (inactive)	82.2 µM (inactive)	92.7 µM (inactive)	> 100 µM (inactive)	> 100 µM (inactive)	23.9 µM (inactive)
COc1ccc(Oc2ccccc2N)cc1	20.8 µM (inactive)	–	26.1 µM (inactive)	29.5 µM (inactive)	57 µM (inactive)	21 µM (inactive)	13.2 µM (inactive)	43 µM (inactive)	59 µM (inactive)	39.9 µM (inactive)	36.6 µM (inactive)	24.5 µM (inactive)	26.4 µM (inactive)	42.1 µM (inactive)	30.6 µM (inactive)	35.2 µM (inactive)	26.5 µM (inactive)
CC1=C2[C@H](c3ccccc3)C3C=CC2(c2ccccc23)N(C(=O)C(c2ccccc2)c2ccccc2)C1=O (stereo partly drawn)	> 100 µM (inactive)	–	> 100 µM (inactive)	> 100 µM (inactive)	–	41.3 µM (inactive)	> 100 µM (inactive)	> 100 µM (inactive)	> 100 µM (inactive)	> 100 µM (inactive)	> 100 µM (inactive)	> 100 µM (inactive)	> 100 µM (inactive)	> 100 µM (inactive)	> 100 µM (inactive)	> 100 µM (inactive)	> 100 µM (inactive)
COc1cc2c(cc1OC)C(C(c1ccccc1)c1ccccc1)N(C)CC2 (stereo not drawn)	26.3 µM (inactive)	74.1 µM (inactive)	> 75.9 µM (inactive)	40.8 µM (inactive)	> 85.9 µM (inactive)	40.6 µM (inactive)	21 µM (inactive)	> 100 µM (inactive)	> 100 µM (inactive)	35.1 µM (inactive)	70.6 µM (inactive)	–	> 84.7 µM (inactive)	> 100 µM (inactive)	> 89.1 µM (inactive)	> 100 µM (inactive)	> 63.7 µM (inactive)
COc1ccc2c(c1)[n+]([O-])c(-c1ccc(C)cc1)c(N)[n+]2[O-]	–	16.3 µM (inactive)	> 100 µM (inactive)	67.1 µM (inactive)	40.6 µM (inactive)	43.9 µM (inactive)	35.8 µM (inactive)	20.9 µM (inactive)	38.4 µM (inactive)	52.5 µM (inactive)	43.3 µM (inactive)	57.4 µM (inactive)	31 µM (inactive)	–	38.3 µM (inactive)	> 100 µM (inactive)	55.1 µM (inactive)
O=C1C=C2SC3C[C@@]24CC1[N+]1=c2c4c(c(O)c4c2=C(C=N4)CC1)N3	2.74 µM (inactive)	1.58 µM (inactive)	3.43 µM (inactive)	2.44 µM (inactive)	1.82 µM (inactive)	1.46 µM (inactive)	1.88 µM (inactive)	–	2.62 µM (inactive)	–	2.44 µM (inactive)	–	0.938 µM (active)	1.45 µM (inactive)	3.2 µM (inactive)	17.8 µM (inactive)	16.6 µM (inactive)

— ChEMBL document CHEMBL1201862, “PubChem BioAssay data set” (2004)
